{"source": "patent US12219958B2", "about": "“Glufosinate additive for improved weed control” (THE BOARD OF TRUSTEES OF THE UNIVERSITY OF ARKANSAS, priority 2019, dated 2025)", "key": {"[1]": {"system": "johnsongrass", "experiment": "Field experiment, johnsongrass control with glufosinate + additive at 10 pm (Example 5, FIG. 12)", "assay_type": "in vivo"}, "[2]": {"system": "Palmer amaranth", "experiment": "Field experiment, Palmer amaranth control with glufosinate + additive at 10 pm (Example 5, FIG. 11)", "assay_type": "in vivo, Amaranthus palmeri"}, "[3]": {"system": "Enlist cotton, XtendFlex cotton, LibertyLink GT27 soybean, and LibertyLink corn", "conditions": "in vivo"}, "[4]": {"system": "Enlist cotton, XtendFlex cotton, LibertyLink GT27 soybean, and LibertyLink corn", "conditions": "in vivo", "remark": "listed apart in the source"}, "[5]": {"system": "native large crabgrass populations", "experiment": "Field experiment, large crabgrass control (Examples 2 and 3, FIG. 6)", "assay_type": "in vivo", "conditions": "added to glufosinate 655 g ai/ha; saflufenacil 1 g ai/ha, acifluorfen 14 g ai/ha; 10 pm"}, "[6]": {"system": "native mixture of Palmer amaranth and waterhemp", "design": "species or system Amaranthus palmeri, Amaranthus tuberculatus", "conditions": "in vivo"}}, "note": "Counter-ions that a name gives are not always drawn.", "data": [{"compound": "CCOP(=S)(OCC)Oc1nc(Cl)c(Cl)cc1Cl", "note": "[Chlorpyrifos, O,O-Diethyl O-3,5,6-trichloropyridin-2-yl phosphorothioate]", "values": [{"measurement": "increase in glufosinate efficacy of johnsongrass", "setting": "[1]; in vivo", "value": "greatest increase"}, {"measurement": "increase in glufosinate efficacy of Palmer amaranth", "setting": "[2]; in vivo", "value": "greatest increase"}, {"measurement": "crop response", "setting": "[3]", "value": "not eliciting a negative crop response"}]}, {"compound": "O=C(O)c1cc(Oc2ccc(C(F)(F)F)cc2Cl)ccc1[N+](=O)[O-]", "note": "[acifluorfen]", "values": [{"measurement": "crop impact of glufosinate and the additive applied during the day", "setting": "[4]", "value": "negatively impacted at least one of the crops"}, {"measurement": "crop injury when applied at 10 pm versus 10 am", "setting": "[4]", "value": "less"}, {"measurement": "effect of the additive on reductions in weed control due to low-light intensity", "setting": "[5]", "value": "did not alleviate reductions in weed control"}, {"measurement": "effect of the additive on reductions in weed control due to low-light intensity", "setting": "[6]", "value": "did not alleviate reductions in weed control"}]}, {"compound": "CCOC(=O)/C=C\\C(=O)OCC", "note": "[diethyl maleate]", "values": [{"measurement": "increase in glufosinate efficacy of johnsongrass", "setting": "[1]; low-light conditions (10 pm), glufosinate 655 g ai/ha + additive 280 g ai/ha, 15 to 20-cm tall johnsongrass", "value": "greatest increase"}, {"measurement": "increase in glufosinate efficacy of Palmer amaranth", "setting": "[2]; low-light conditions (10 pm), glufosinate 655 g ai/ha + additive 280 g ai/ha, 25 to 30-cm tall Palmer amaranth", "value": "greatest increase"}]}, {"compound": "CC(C)N(C)S(=O)(=O)NC(=O)c1cc(-n2c(=O)cc(C(F)(F)F)n(C)c2=O)c(F)cc1Cl", "note": "[saflufenacil, N′-{2-Chloro-4-fluoro-5-[1,2,3,6-tetrahydro-3-methyl-2,6-dioxo-4-(trifluoromethyl)pyrimidin-1-yl]benzoyl}-N-isopropyl-N-methylsulfamide]", "values": [{"measurement": "crop impact of glufosinate and the additive applied during the day", "setting": "[4]", "value": "negatively impacted at least one of the crops"}, {"measurement": "crop injury when applied at 10 pm versus 10 am", "setting": "[4]", "value": "less"}, {"measurement": "effect of the additive on reductions in weed control due to low-light intensity", "setting": "[5]", "value": "did not alleviate reductions in weed control"}, {"measurement": "effect of the additive on reductions in weed control due to low-light intensity", "setting": "[6]", "value": "did not alleviate reductions in weed control"}]}]}
